Measurements published in ChEMBL document CHEMBL3632492, “Substituted 2-arylquinazolinones: Design, synthesis, and evaluation of cytotoxicity and inhibition of topoisomerases” (Eur J Med Chem, 2015).

How the values were obtained:
HeLa = test: Cytotoxicity against human HeLa cells measured after 2 days by MTT assay; type: functional, cell-based; settings: 48 h
T47D = test: Cytotoxicity against human T47D cells measured after 2 days by MTT assay; type: functional, cell-based; settings: 48 h
HCT-15 = test: Cytotoxicity against human HCT15 cells measured after 2 days by MTT assay; type: functional, cell-based; settings: HCT-15, 48 h
[1] = molecular target: DNA topoisomerase 2-alpha (Homo sapiens) (UniProt P11388); test: Inhibition of recombinant human topoisomerase 2alpha assessed as relaxation of supercoiled plasmid DNA pBR322 at 100 uM incubated for 30 mins by agarose gel electrophoresis
[2] = molecular target: T1, DNA topoisomerase 1 (Homo sapiens) (UniProt P11387); test: Inhibition of recombinant human topoisomerase 1 assessed as relaxation of supercoiled plasmid DNA pBR322 at 100 uM incubated for 30 mins by agarose gel electrophoresis
T1 sequence (whole entry): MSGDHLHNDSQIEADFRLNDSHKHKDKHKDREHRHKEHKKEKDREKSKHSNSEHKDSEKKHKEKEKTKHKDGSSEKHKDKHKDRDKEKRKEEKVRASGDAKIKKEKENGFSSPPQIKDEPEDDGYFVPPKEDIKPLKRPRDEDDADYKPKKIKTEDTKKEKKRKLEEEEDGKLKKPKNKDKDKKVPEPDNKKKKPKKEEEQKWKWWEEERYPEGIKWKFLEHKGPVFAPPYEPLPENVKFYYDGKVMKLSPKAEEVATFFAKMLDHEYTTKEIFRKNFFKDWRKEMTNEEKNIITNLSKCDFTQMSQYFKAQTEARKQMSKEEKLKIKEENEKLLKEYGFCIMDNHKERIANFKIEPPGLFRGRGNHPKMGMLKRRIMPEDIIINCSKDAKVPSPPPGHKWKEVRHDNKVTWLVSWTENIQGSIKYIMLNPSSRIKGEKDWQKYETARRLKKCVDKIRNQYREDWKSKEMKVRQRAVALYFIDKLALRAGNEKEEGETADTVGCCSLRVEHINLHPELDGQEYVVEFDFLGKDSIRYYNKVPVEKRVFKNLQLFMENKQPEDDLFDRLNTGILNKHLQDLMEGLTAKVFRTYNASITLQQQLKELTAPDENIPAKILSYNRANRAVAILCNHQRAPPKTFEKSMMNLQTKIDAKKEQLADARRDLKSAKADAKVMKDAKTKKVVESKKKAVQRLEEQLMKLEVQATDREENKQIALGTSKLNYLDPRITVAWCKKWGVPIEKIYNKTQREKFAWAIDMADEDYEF

[3] = molecular target: T1, DNA topoisomerase 1 (Homo sapiens); test: Potency index, ratio of compound activity to CPT activity for inhibition of recombinant human topoisomerase 1 at 20 uM
[4] = molecular target: T1, DNA topoisomerase 1 (Homo sapiens); test: Potency index, ratio of compound activity to CPT activity for inhibition of recombinant human topoisomerase 1 at 100 uM
[5] = molecular target: T1, DNA topoisomerase 1 (Homo sapiens); test: Inhibition of recombinant human topoisomerase 1 assessed as relaxation of supercoiled plasmid DNA pBR322 at 20 uM incubated for 30 mins by agarose gel electrophoresis
[6] = molecular target: DNA topoisomerase 2-alpha (Homo sapiens) (UniProt P11388); test: Inhibition of recombinant human topoisomerase 2alpha assessed as relaxation of supercoiled plasmid DNA pBR322 at 20 uM incubated for 30 mins by agarose gel electrophoresis
[7] = molecular target: DNA topoisomerase 2-alpha (Homo sapiens) (UniProt P11388); test: Potency index, ratio of compound activity to etoposide activity for inhibition of recombinant human topoisomerase 2alpha at 100 uM
[8] = molecular target: DNA topoisomerase 2-alpha (Homo sapiens) (UniProt P11388); test: Potency index, ratio of compound activity to etoposide activity for inhibition of recombinant human topoisomerase 2alpha at 20 uM

DNA topoisomerase 2-alpha (Homo sapiens), sequence (P11388 whole entry): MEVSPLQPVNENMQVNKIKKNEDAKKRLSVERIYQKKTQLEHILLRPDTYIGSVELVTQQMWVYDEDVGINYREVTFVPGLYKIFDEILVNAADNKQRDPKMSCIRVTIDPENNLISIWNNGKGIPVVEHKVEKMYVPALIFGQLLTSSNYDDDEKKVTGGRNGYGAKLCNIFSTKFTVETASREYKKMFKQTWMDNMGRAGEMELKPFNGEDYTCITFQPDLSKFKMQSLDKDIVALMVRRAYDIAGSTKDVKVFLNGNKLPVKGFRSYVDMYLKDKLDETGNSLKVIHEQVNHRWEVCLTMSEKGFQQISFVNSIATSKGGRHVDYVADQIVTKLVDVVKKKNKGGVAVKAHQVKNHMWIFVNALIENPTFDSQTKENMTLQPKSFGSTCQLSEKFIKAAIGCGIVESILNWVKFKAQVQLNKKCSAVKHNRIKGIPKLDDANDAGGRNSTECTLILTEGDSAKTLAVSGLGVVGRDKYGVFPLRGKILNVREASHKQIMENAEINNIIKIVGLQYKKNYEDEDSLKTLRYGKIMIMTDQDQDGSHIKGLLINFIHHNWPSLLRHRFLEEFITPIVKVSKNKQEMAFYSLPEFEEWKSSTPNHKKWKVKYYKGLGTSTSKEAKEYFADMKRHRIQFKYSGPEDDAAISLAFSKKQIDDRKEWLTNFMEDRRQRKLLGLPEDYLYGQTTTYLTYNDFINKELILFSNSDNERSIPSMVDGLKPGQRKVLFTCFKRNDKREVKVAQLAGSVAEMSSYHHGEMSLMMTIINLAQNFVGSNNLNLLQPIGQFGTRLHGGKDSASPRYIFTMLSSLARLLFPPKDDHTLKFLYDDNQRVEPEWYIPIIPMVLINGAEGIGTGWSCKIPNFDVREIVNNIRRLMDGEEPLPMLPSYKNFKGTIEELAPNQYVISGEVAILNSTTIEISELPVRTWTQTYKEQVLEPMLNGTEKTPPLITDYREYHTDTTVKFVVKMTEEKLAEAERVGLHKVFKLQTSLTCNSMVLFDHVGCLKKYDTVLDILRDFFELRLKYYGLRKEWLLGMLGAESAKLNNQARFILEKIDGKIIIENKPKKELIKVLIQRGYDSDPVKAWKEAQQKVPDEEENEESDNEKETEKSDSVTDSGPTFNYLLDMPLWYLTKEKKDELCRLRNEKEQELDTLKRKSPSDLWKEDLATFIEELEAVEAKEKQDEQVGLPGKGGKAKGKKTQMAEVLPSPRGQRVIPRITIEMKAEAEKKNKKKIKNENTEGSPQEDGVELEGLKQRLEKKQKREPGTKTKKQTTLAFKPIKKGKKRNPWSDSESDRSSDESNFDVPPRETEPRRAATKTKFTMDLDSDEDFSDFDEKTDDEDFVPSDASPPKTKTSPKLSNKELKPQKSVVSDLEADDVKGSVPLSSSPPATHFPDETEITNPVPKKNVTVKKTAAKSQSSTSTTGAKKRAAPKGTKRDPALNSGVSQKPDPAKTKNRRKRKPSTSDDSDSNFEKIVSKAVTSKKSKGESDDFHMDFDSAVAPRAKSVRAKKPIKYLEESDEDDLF

inhibition [1] [%] | inhibition [2] [%] | Ratio [3] | Ratio [4] | inhibition [5] [%] | inhibition [6] [%] | Ratio [7] | Ratio [8] | Structure (SMILES) | IC50 (HeLa) [µM] | IC50 (T47D) [µM] | IC50 (HCT-15) [µM]
 |  |  |  |  |  |  |  | CC[C@@]1(O)C(=O)OCc2c1cc1n(c2=O)Cc2cc3ccccc3nc2-1 [CAMPTOTHECIN] | 1.59 | 1.62 | 6.08
0 | 90.4 | 0.83 | 1.17 | 25.5 |  |  |  | CCN(CC)c1ccc2nc(-c3cccc4ccccc34)[nH]c(=O)c2c1 | 0.004 | 2.69 | 3.21
0 | 100 | 0.14 | 1.24 | 2.4 |  |  |  | CN(C)c1ccc2nc(-c3cccc4ccccc34)[nH]c(=O)c2c1 | 0.05 | > 50 | 0.46
65.2 | 71.8 |  | 1.01 | 0 | 19 | 0.81 | 0.38 | COc1cccc(-c2nc3ccc(C)cc3c(=O)[nH]2)c1 | > 50 | > 50 | 32
11.2 | 45.8 | 0.13 | 0.64 | 4.2 | 0 | 0.14 |  | Cc1ccc2nc(-c3cccc(C(F)(F)F)c3)[nH]c(=O)c2c1 | > 50 | > 50 | > 50
4.6 | 75.7 | 0.39 | 1.06 | 12.7 |  | 0.05 |  | Cc1cccc(-c2nc3ccc(C)cc3c(=O)[nH]2)c1 | > 50 | > 50 | > 50
0 | 81.2 |  | 0.98 | 0 |  |  |  | CCN(CC)c1ccc2nc(-c3ccccc3OC(F)(F)F)[nH]c(=O)c2c1 | 0.04 | 1.67 | 1.71
0 | 80.9 |  | 0.97 | 0 |  |  |  | COc1cccc(-c2nc3ccc(N4CCCCC4)cc3c(=O)[nH]2)c1OC | 8.19 | 10.4 | 24.8
9.4 | 81.7 | 0.49 | 0.98 | 13.3 |  | 0.11 |  | CCN(CC)c1ccc2nc(-c3ccccc3C(F)(F)F)[nH]c(=O)c2c1 | 0.1 | 2.55 | 0.28
 |  |  |  |  |  |  |  | COc1cccc2c1C(=O)c1c(O)c3c(c(O)c1C2=O)C[C@@](O)(C(=O)CO)C[C@@H]3O[C@H]1C[C@H](N)[C@H](O)[C@H](C)O1 [DOXORUBICIN] | 0.52 | 1.9 | 3.33
0 | 82.1 |  | 0.99 | 0 |  |  |  | CCN(CC)c1ccc2nc(-c3ccccc3N(C)C)[nH]c(=O)c2c1 | 0.07 | 2.21 | 4.2
7.2 | 72 | 0.65 | 1.01 | 21.1 | 0 | 0.09 |  | Cc1ccc2nc(-c3ccccc3C(F)(F)F)[nH]c(=O)c2c1 | 2.45 | > 50 | > 50
7.2 | 82.9 | 1.22 | 1.03 | 21.1 |  | 0.09 |  | Cc1ccc2nc(-c3ccccc3N(C)C)[nH]c(=O)c2c1 | 14 | 26.7 | > 50
0 | 0 |  |  |  |  |  |  | Cc1ccc2nc(-c3ccccc3C)[nH]c(=O)c2c1 | 4.58 | > 50 | 11.7
9.6 | 77.5 | 0.16 | 0.93 | 4.3 |  | 0.12 |  | Cc1ccc2c(=O)[nH]c(-c3cccc(F)c3)nc2c1 | > 50 | > 50 | 14.4
5.47 | 66.9 |  | 0.83 | 0 |  | 0.06 |  | Cc1ccc2nc(-c3ccccc3OC(F)(F)F)[nH]c(=O)c2c1 | 0.85 | > 50 | 2.79
0 | 81.2 |  | 0.98 | 0 |  |  |  | Cc1ccc2c(=O)[nH]c(-c3ccccc3F)nc2c1 | 0.83 | > 50 | 10.3
0 | 100 | 1.94 | 1.24 | 33.4 |  |  |  | O=c1[nH]c(-c2cccc3ccccc23)nc2ccc(N3CCCCC3)cc12 | 0.33 | > 50 | 2.24
0 | 82.9 | 0.01 | 1.03 | 0.2 |  |  |  | Cc1ccc2nc(-c3cccc(F)c3)[nH]c(=O)c2c1 | > 50 | > 50 | > 50
0 | 100 | 1.95 | 1.29 | 60.1 |  |  |  | Cc1ccc2c(=O)[nH]c(-c3cccc4ccccc34)nc2c1 | > 50 | > 50 | 23.3
5.5 | 4.1 |  | 0.05 |  |  | 0.06 |  | Cc1ccc2nc(-c3cccc4ccccc34)[nH]c(=O)c2c1 | 5.36 | > 50 | > 50
0 | 100 | 3.25 | 1.29 | 100 |  |  |  | Cc1ccc2c(=O)[nH]c(-c3ccccc3OC(F)(F)F)nc2c1 | 18.3 | > 50 | 15.9
 |  |  |  |  |  |  |  | COc1cc([C@@H]2c3cc4c(cc3[C@@H](O[C@@H]3O[C@@H]5CO[C@@H](C)O[C@H]5[C@H](O)[C@H]3O)[C@H]3COC(=O)[C@H]23)OCO4)cc(OC)c1O [ETOPOSIDE] | 7.6 | 9.28 | 5.54
0 | 98.6 |  | 1.39 | 0 |  |  |  | Cc1ccc2nc(-c3cccc(OC(F)(F)F)c3)[nH]c(=O)c2c1 | > 50 | > 50 | > 50
0 | 67.9 | 2.11 | 0.84 | 36.3 |  |  |  | Cc1ccc2nc(-c3ccccc3F)[nH]c(=O)c2c1 | > 50 | > 50 | > 50
0 | 77.2 |  | 0.93 | 0 |  |  |  | Cc1ccc2c(=O)[nH]c(-c3cccc(OC(F)(F)F)c3)nc2c1 | > 50 | > 50 | > 50
0 | 100 | 3.04 | 1.29 | 93.6 |  |  |  | Cc1ccc2c(=O)[nH]c(-c3cccc(C(F)(F)F)c3)nc2c1 | > 50 | > 50 | > 50
